Results reported in patent publication US9187467B2, “2-phenyl benzothiazole linked imidazole compounds as potential anticancer agents and process for the preparation thereof” (Council of Scientific and Industrial Research, priority 2012, dated 2015).

What was measured:
NCI/ADR-RES = assay: SRB anticancer assay, ovarian; type: cell-based, human; design: Log10GI50: unit not given here; settings: for Log10GI50: present compounds
RXF 393 = assay: SRB anticancer assay, renal; type: cell-based, human; design: Log10GI50: unit not given here
HCT-116 = assay: SRB anticancer assay, colon; type: cell-based, human; settings: Homo sapiens, HCT-116, 48 h
OVCAR-4 = assay: SRB anticancer assay, ovarian; type: cell-based, human; settings: Homo sapiens, OVCAR-4, 48 h
[1] = test system: Prostate cancer cell lines; assay: SRB anticancer assay, panel result; type: cell-based, human
How it was run: (§1)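 Cells from a sixty-line human panel were treated continuously for 48 h at no fewer than five concentrations separated by 10-fold dilutions. Growth was then estimated with an SRB protein assay, and dose–response curves were built per cell line.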

[2] = test system: Non-small cell lung cancer cell lines; assay: SRB anticancer assay, panel result; type: cell-based, human
How it was run: as §1

[3] = test system: Leukemia cancer cell lines; assay: SRB anticancer assay, panel result; type: cell-based, human
How it was run: as §1

[4] = test system: Melanoma cancer cell lines; assay: SRB anticancer assay, panel result; type: cell-based, human
How it was run: as §1

Colon cancer cell lines = assay: SRB anticancer assay, panel result; type: cell-based, human
How it was run: as §1

Renal cancer cell lines = assay: SRB anticancer assay, panel result; type: cell-based, human
How it was run: as §1

Breast cancer cell lines = assay: SRB anticancer assay, panel result; type: cell-based, human
How it was run: as §1

CNS cancer cell lines = assay: SRB anticancer assay, panel result; type: cell-based, human
How it was run: as §1

[5] = test system: Ovarian cancer cell lines; assay: SRB anticancer assay, panel result; type: cell-based, human
How it was run: as §1

K562 (Leukemia) cells = assay: Cell cycle distribution by flow cytometry; type: cell-based
How it was run: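 Compound-treated K562 cells analysed for cell-cycle distribution by flow cytometry; values given as % of cells.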

OVCAR-8 = assay: SRB anticancer assay, ovarian; type: cell-based, human; design: Log10GI50: unit not given here
[6] = test system: MCF-7 (Breast carcinoma) cells; assay: Cell cycle distribution by flow cytometry (FACS); type: cell-based; settings: MCF-7 cells, 2 μM, 24h
How it was run: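 MCF-7 cells treated with compound at 2 μM for 24h, DMSO (0.25%) as control. Cell cycle distribution read by flow cytometry.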

SNB-75 = assay: SRB anticancer assay, CNS; type: cell-based, human; design: Log10GI50: unit not given here
HOP-92 = assay: SRB anticancer assay, non-small lung; type: cell-based, human; design: Log10GI50: unit not given here
SN12C = assay: SRB anticancer assay, renal; type: cell-based, human; design: Log10GI50: unit not given here
SK-MEL-2 = assay: SRB anticancer assay, melanoma; type: cell-based, human
MCF7 = assay: SRB anticancer assay, breast; type: cell-based, human; settings: Homo sapiens, MCF7, 48 h
SNB-19 = assay: SRB anticancer assay, CNS; type: cell-based, human; design: Log10GI50: unit not given here
M14 = assay: SRB anticancer assay, melanoma; type: cell-based, human; design: Log10GI50: unit not given here

## COc1cc(-c2cncn2-c2ccc(-c3nc4ccc(F)cc4s3)cc2)ccc1F [Compound 4c, 6-Fluoro-2-(4-(5-(4-fluoro-3-methoxyphenyl)-1H-imidazol-1-yl)phenyl)benzo[d]thiazole]
NCI/ADR-RES; Homo sapiens, NCI/ADR-RES, 48 h
  GI50: 30.6 µM
NCI/ADR-RES; NCI/ADR-RES (row head NCI/ADR-)
  Log10GI50: −4.51
NCI/ADR-RES; listed as head printed RES (second line of NCI/ADR-RES)
  Log10GI50: >−4.0
RXF 393; Homo sapiens, RXF 393, 48 h
  GI50: 13.5 µM
RXF 393; RXF 393, present compounds
  Log10GI50: −4.87
HCT-116
  GI50: 4.36 µM
OVCAR-4
  GI50: 11.4 µM
[1]; Homo sapiens, Prostate panel, 50% net cell death, read-out: mean graph midpoint value (MG_MID) of Log10 LC50 (converted)
  LC50: > 100 µM
[1]; Homo sapiens, two prostate cancer cell lines (PC-3, DU-145), exposure at least 48 h, read-out: GI50, range over the panel
  GI50: 3.47 to 14.3 µM
[1]; Prostate panel
  mean graph midpoint value (MG_MID) of Log10 GI50: −5.16 mol/L
[1]; Prostate panel, total inhibition of net cell growth
  mean graph midpoint value (MG_MID) of log10 TGI: −4.06
[2]; Homo sapiens, Non-small cell lung panel, 50% net cell death, read-out: mean graph midpoint value (MG_MID) of Log10 LC50 (converted)
  LC50: 93.3 µM
[2]; Homo sapiens, nine Non-small cell lung cancer cell lines, exposure at least 48 h, read-out: GI50, range over the panel
  GI50: 5.47 to 49.3 µM
[2]; Non-small cell lung panel
  mean graph midpoint value (MG_MID) of Log10 GI50: −4.83 log10(M)
[3]; Homo sapiens, Leukemia panel, 50% net cell death, read-out: mean graph midpoint value (MG_MID) of Log10 LC50 (converted)
  LC50: > 100 µM
[3]; Homo sapiens, six leukemia cancer cell lines, exposure at least 48 h, read-out: GI50, range over the panel
  GI50: 2.5 to 6.92 µM
[3]; Leukemia panel
  mean graph midpoint value (MG_MID) of Log10 GI50: −5.38 log10(mol/L)
[3]; Leukemia panel, total inhibition of net cell growth
  mean graph midpoint value (MG_MID) of log10 TGI: −4.19
[4]; Homo sapiens, Melanoma panel, 50% net cell death, read-out: mean graph midpoint value (MG_MID) of Log10 LC50 (converted)
  LC50: > 100 µM
[4]; Homo sapiens, nine melanoma cancer cell lines, exposure at least 48 h, read-out: GI50, range over the panel
  GI50: 4.11 to 39.7 µM
[4]; Melanoma panel
  mean graph midpoint value (MG_MID) of Log10 GI50: −4.82 log10(mol/L)
[4]; Melanoma panel, total inhibition of net cell growth
  mean graph midpoint value (MG_MID) of log10 TGI: >−4.0
Colon cancer cell lines; Colon panel
  mean graph midpoint value (MG_MID) of Log10 GI50: −4.71 log10(mol/L)
Colon cancer cell lines; Colon panel, total inhibition of net cell growth
  mean graph midpoint value (MG_MID) of log10 TGI: −4.06
Colon cancer cell lines; Homo sapiens, Colon panel, 50% net cell death, read-out: mean graph midpoint value (MG_MID) of Log10 LC50 (converted)
  LC50: > 100 µM
Colon cancer cell lines; Homo sapiens, seven colon cancer cell lines, exposure at least 48 h, read-out: GI50, range over the panel
  GI50: 4.36 to 82.3 µM
Renal cancer cell lines; Homo sapiens, Renal panel, 50% net cell death, read-out: mean graph midpoint value (MG_MID) of Log10 LC50 (converted)
  CC50: 95.5 µM
Renal cancer cell lines; Homo sapiens, eight renal cancer cell lines, exposure at least 48 h, read-out: GI50, range over the panel
  GI50: 0.0432 to 38.8 µM
Renal cancer cell lines; Renal panel
  mean graph midpoint value (MG_MID) of Log10 GI50: −4.98 log10(mol/L)
Renal cancer cell lines; Renal panel, total inhibition of net cell growth
  mean graph midpoint value (MG_MID) of log10 TGI: −4.11
Breast cancer cell lines; Breast panel
  mean graph midpoint value (MG_MID) of Log10 GI50: −4.82 mol/L
Breast cancer cell lines; Breast panel, total inhibition of net cell growth
  mean graph midpoint value (MG_MID) of log10 TGI: −4.02
Breast cancer cell lines; Homo sapiens, Breast panel, 50% net cell death, read-out: mean graph midpoint value (MG_MID) of Log10 LC50 (converted)
  CC50: > 100 µM
Breast cancer cell lines; Homo sapiens, six breast cancer cell lines, exposure at least 48 h, read-out: GI50, range over the panel
  GI50: 7.98 to 32.2 µM
CNS cancer cell lines; CNS panel
  mean graph midpoint value (MG_MID) of Log10 GI50: −4.52 mol/L
CNS cancer cell lines; CNS panel, total inhibition of net cell growth
  mean graph midpoint value (MG_MID) of log10 TGI: −4.05
CNS cancer cell lines; Homo sapiens, CNS panel, 50% net cell death, read-out: mean graph midpoint value (MG_MID) of Log10 LC50 (converted)
  CC50: > 100 µM
CNS cancer cell lines; Homo sapiens, six CNS cancer cell lines, exposure at least 48 h, read-out: GI50, range over the panel
  GI50: 12.6 to 75.9 µM
[5]; Homo sapiens, Ovarian panel, 50% net cell death, read-out: mean graph midpoint value (MG_MID) of Log10 LC50 (converted)
  LC50: > 100 µM
[5]; Homo sapiens, seven ovarian cancer cell lines, exposure at least 48 h, read-out: GI50, range over the panel
  GI50: 5.71 to 30.6 µM
[5]; Ovarian panel
  mean graph midpoint value (MG_MID) of Log10 GI50: −4.62 mol/L
[5]; Ovarian panel, total inhibition of net cell growth
  mean graph midpoint value (MG_MID) of log10 TGI: −4.11
K562 (Leukemia) cells
  cells in G2/M phase: 14%
OVCAR-8; Homo sapiens, OVCAR-8, 48 h
  GI50: 15.2 µM
OVCAR-8; OVCAR-8, present compounds
  Log10GI50: −4.82
[6]
  cells in G2/M phase: 18%
SNB-75; Homo sapiens, SNB-75, 48 h
  GI50: 12.6 µM
SNB-75; SNB-75, present compounds
  Log10GI50: −4.69
HOP-92; HOP-92, present compounds
  Log10GI50: −5.26
HOP-92; Homo sapiens, HOP-92, 48 h
  GI50: 5.47 µM
SN12C; Homo sapiens, 48 h
  GI50: 31.9 µM
SN12C; present compounds
  Log10GI50: −4.50
SK-MEL-2; Homo sapiens, SK-MEL-2, 48 h
  GI50: 39.7 µM
SK-MEL-2; SK-MEL-2, present compounds
  Log10GI50: −4.40 M
MCF7
  GI50: 23.5 µM
SNB-19; Homo sapiens, SNB-19, 48 h
  GI50: 20.6 µM
SNB-19; SNB-19, present compounds
  Log10GI50: >−4.0
M14; Homo sapiens, M14, 48 h
  GI50: 33.4 µM
M14; M14, present compounds
  Log10GI50: −4.48
